“Also recorded” adds a separate entry of the source.
Tested on: patterned neonatal rat cardiomyocytes
Assay: Multielectrode extracellular recordings from patterned spontaneously beating cardiomyocytes on MEAs (drug effect)
Format: cell-based
Method: MEAs containing 60, 10 μm diameter electrodes (Multichannel Systems, Germany) were cleaned by soaking the arrays in a detergent solution for 2 hours followed by sonication for 10 minutes. The arrays were then oxygen plasma cleaned for 20 minutes. Surface modification was completed by incubation of the MEAs in a 3 mM PEG silane, 2-[Methoxypoly(ethyleneoxy)propyl]trimethoxysilane (MW=460-590, Gelest), solution in toluene, with 37% concentrated HCL added to achieve a final value of 0.08% (0.8 ml HCL/L), for 45 minutes at room temperature. The arrays were then rinsed once in toluene, twice in ethanol, twice in water and sonicated in water for 2 minutes to remove the non-covalently linked material. The arrays were air dried with nitrogen and stored in a dessicator overnight.
The MEAs were patterned by laser ablation photolithography using a deep UV (193 nm) excimer laser (Lambda Physik) at a pulse power of 230 mW and a frequency of 10 Hz for 45 seconds through a quartz photomask (Bandwidth foundry, Eveleigh, Australia). The arrays were sterilized using 70% isopropanol and then incubated with 5 μg/ml of fibronectin in a Phosphate buffered solution (Invitrogen) for 20 minutes at room temperature. The solution was removed and the surface was first rinsed with PBS, followed by the plating medium, and then dried before the cells were plated.
The neonatal rat cardiomyocyte culture was prepared using the cardiac isolation kit from Worthington[40]. All animal work was approved by the UCF IACUC and followed NIH guidelines. Briefly, two day-old rat pups were euthanized in a precharged CO2 chamber. Hearts were dissected and minced in ice cold Hanks balanced salt solution (HBSS). Cardiac myocytes were dissociated by incubation of the hearts in trypsin (100 μg/ml in HBSS) for 16 hours at 2-8° C. The hearts in the trypsin solution were briefly warmed with a trypsin inhibitor before adding collegenase (300 units/ml in L-15 medium) for 45 minutes in a water bath at 37° C. followed by mechanical trituration. The cell solution was filtered to remove any remaining tissue and centrifuged at 50 g for 5 minutes at 22° C. The cells were resuspended in high glucose Dulbecco's modified eagle medium (DMEM, Gibco/Invitrogen) supplemented with 10 ml Fetal Bovine Serum (Gibco/Invitrogen) and 1 ml penicillin streptomycin (Gibco/Invitrogen), preplated in Petri dishes and incubated at 37° C. and in 5% CO2 for 45 minutes. This was necessary to eliminate the fibroblasts. The supernatant from the Petri dishes was centrifuged at 50 g for 5 min at 22° C. The cells were then resuspended in the plating medium. The serum-free plating medium consisted of: 100 ml Ultraculture medium (Bio Whittaker Cambrex) supplemented with 10 ml B27, 1 ml L-glutamine (Gibco/Invitrogen), 1 ml Penicillin Streptomycin, 0.375 g dextrose (Fisher Scientific) in 800 μl water, 1 ml non-essential amino acids and 1 ml of Hepes buffer (Gibco/Invitrogen)[41]. Additional growth factors were also added to improve cell survival in the serum-free conditions. They included 0.1 μg/ml of L-thyroxine, 10 ng/ml of Epidermal growth factor (Sigma-aldrich) and 0.5 μg/ml of Hydrocortisone (BD biosciences). Cells were plated at a density of 1000 cells/mm^2 on the MEAs. The medium was changed 24 hours after plating. Subsequent changing of the medium was performed every third day.
The cardiac myocytes were cultured on patterned metal MEAs (Planar 10 μm electrodes, 200 μm separation, Multichannel-systems). A 60 channel amplifier (MEA1040, Multichannel-systems) was used to record electrical activity from the spontaneously beating cardiac cells. The same electrodes were also used for stimulation utilizing a stimulus generator (STG 1002, Multichannel systems). The cells were stimulated utilizing 500 mV, 1 ms wide bipolar pulses at 2 Hz. The recording medium was the same as the plating medium with the pH adjusted to 7.3 using HEPES buffer. […]

[1] = 2 μM Sparfloxacin in recording medium

Structure (SMILES) | Conduction velocity (CV) (50 μM 1-Heptanol in recording medium, spontaneously beating cells, n=4 MEAs, before treatment 0.197±0.014 m/s) [m/s] | Time for propagation of the excitation wave versus value before treatment (50 μM 1-Heptanol, FPs recorded at 15 minute intervals) | Effect on CV in the cardiac myocyte monolayers (in words) (1-Heptanol, 50 μM) | Synchronicity of the beating cells (1-Heptanol, 50 μM) | Conduction velocity (CV), propagation of excitation after the drug (1-Heptanol, between electrodes 84 and 52 of the pattern, before drug 0.197 m/sec, FIG. 5) [m/sec] | Beating pattern, synchrony and conduction (in words) [1] | Field potential (FP) length [1] | Time to significant change in the spontaneous beating frequency [1] [min]
CCCCCCCO [1-Heptanol] | 0.0066±0.0004 | significantly increased | drastically decreased the CV in the cardiac myocyte monolayers without completely blocking the conduction | maintaining the synchronicity of the beating cells | 0.0066 | – | – | –
C[C@@H]1CN(c2c(F)c(N)c3c(=O)c(C(=O)O)cn(C4CC4)c3c2F)C[C@H](C)N1 [Sparfloxacin] | – | – | – | – | – | burst like activity with higher intra-burst frequencies and no synchrony between electrodes; also recorded: non-synchronous contractions similar to fibrillation and burst-like beating activity; also recorded: caused fibrillations which initiated a complete conduction block | increased FP length | ≤ 25
